Laboratory results reported in PubChem BioAssay AID1963841 (Molecular Pharmacology Branch, DTP, NCI, 2024).

Test system: 439559-082-T-J2-PDC spheroid viability
Assay: Anticancer human tumor 439559-082-T-J2-PDC patient-derived colon adenocarcinoma cell line growth inhibition [POLQ]
Settings: spheroids with HUVEC and MSC; for IC50: curve of first compound; for viability, T/C: stronger effect = lower value
Method in brief: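 Complex spheroid viability model combining PDC tumour cells with endothelial (HUVEC) and MSC stromal cells. Novobiocin, ART-558 or RP6685 were tested singly and in combination with standard and investigational anticancer drugs. Each was titrated in half-log steps from near clinical Cmax, or from 10 microM where Cmax was unknown.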

[1] = second compound 0.0316 µM, first compound 0.0316 µM
[2] = second compound 0.0316 µM, first compound 0.1 µM
[3] = second compound 0.0316 µM, first compound 0.316 µM
[4] = second compound 0.0316 µM, first compound 1 µM
[5] = second compound 0.0316 µM, first compound 3.16 µM
[6] = second compound 0.0316 µM, first compound 10 µM
[7] = second compound 0.1 µM, first compound 0.0316 µM
[8] = second compound 0.1 µM, first compound 0.1 µM
[9] = second compound 0.1 µM, first compound 0.316 µM
[10] = second compound 0.1 µM, first compound 1 µM
[11] = second compound 0.1 µM, first compound 3.16 µM
[12] = second compound 0.1 µM, first compound 10 µM
[13] = second compound 0.316 µM, first compound 0.0316 µM
[14] = second compound 0.316 µM, first compound 0.1 µM
[15] = second compound 0.316 µM, first compound 0.316 µM
[16] = second compound 0.316 µM, first compound 1 µM
[17] = second compound 0.316 µM, first compound 3.16 µM
[18] = second compound 0.316 µM, first compound 10 µM
[19] = second compound 1 µM, first compound 0.0316 µM
[20] = second compound 1 µM, first compound 0.1 µM
[21] = second compound 1 µM, first compound 0.316 µM
[22] = second compound 1 µM, first compound 1 µM
[23] = second compound 1 µM, first compound 3.16 µM
[24] = second compound 1 µM, first compound 10 µM
[25] = second compound 3.16 µM, first compound 0.0316 µM
[26] = second compound 3.16 µM, first compound 0.1 µM
[27] = second compound 3.16 µM, first compound 0.316 µM
[28] = second compound 3.16 µM, first compound 1 µM
[29] = second compound 3.16 µM, first compound 3.16 µM
[30] = second compound 3.16 µM, first compound 10 µM
[31] = second compound 10 µM, first compound 0.0316 µM
[32] = second compound 10 µM, first compound 0.1 µM
[33] = second compound 10 µM, first compound 0.316 µM
[34] = second compound 10 µM, first compound 1 µM
[35] = second compound 10 µM, first compound 3.16 µM
[36] = second compound 10 µM, first compound 10 µM
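Note: spheroids exposed to compounds for seven days before readout.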
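Throughout, for viability, T/C: 100% = DMSO vehicle control viability.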

Q: With `C#Cc1c(F)ccc2cc(O)cc(-c3ncc4c(N5CC6CCC(C5)N6)nc(OCC56CCCN5CC(F)C6)nc4c3F)c12` (stereo unspecified) + Cc1cccc(N(C)C(=O)C2C(O)CCN2c2nc(C)cc(C(F)(F)F)c2C#N)c1 as the compound, how does the IC50 (second compound 0.0316 µM) read?
A: > 10 µM

Q: What about the IC50 (second compound 0.1 µM) of the same compound?
A: > 10 µM

Q: What about the IC50 (second compound 0.316 µM) of the same compound?
A: > 10 µM

Q: What about the IC50 (second compound 1 µM) of the same compound?
A: > 10 µM

Q: And the IC50 (second compound 3.16 µM)?
A: > 10 µM

Q: What about the IC50 (second compound 10 µM) of the same compound?
A: 7.64 µM

Q: And the viability, T/C [1]?
A: 92%

Q: And the viability, T/C [2]?
A: 86.6%

Q: What about the viability, T/C [3] of the same compound?
A: 72.3%

Q: And the viability, T/C [4]?
A: 63.1%

Q: And the viability, T/C [5]?
A: 61.9%

Q: What about the viability, T/C [6] of the same compound?
A: 52.5%

Q: And the viability, T/C [7]?
A: 100%

Q: And the viability, T/C [8]?
A: 81.5%

Q: And the viability, T/C [9]?
A: 72.1%

Q: And the viability, T/C [10]?
A: 70.7%

Q: And the viability, T/C [11]?
A: 59.2%

Q: What about the viability, T/C [12] of the same compound?
A: 55%

Q: What about the viability, T/C [13] of the same compound?
A: 99%

Q: What about the viability, T/C [14] of the same compound?
A: 87.6%

Q: And the viability, T/C [15]?
A: 72%

Q: What about the viability, T/C [16] of the same compound?
A: 69.9%

Q: And the viability, T/C [17]?
A: 61.2%

Q: What about the viability, T/C [18] of the same compound?
A: 60.3%

Q: What about the viability, T/C [19] of the same compound?
A: 87.6%

Q: And the viability, T/C [20]?
A: 78.1%

Q: And the viability, T/C [21]?
A: 72.4%

Q: What about the viability, T/C [22] of the same compound?
A: 66.7%

Q: What about the viability, T/C [23] of the same compound?
A: 62%

Q: And the viability, T/C [24]?
A: 51.8%

Q: What about the viability, T/C [25] of the same compound?
A: 94.5%

Q: What about the viability, T/C [26] of the same compound?
A: 80.9%

Q: And the viability, T/C [27]?
A: 69.8%

Q: What about the viability, T/C [28] of the same compound?
A: 65.7%

Q: What about the viability, T/C [29] of the same compound?
A: 63.2%

Q: What about the viability, T/C [30] of the same compound?
A: 52.5%

Q: What about the viability, T/C [31] of the same compound?
A: 81.2%

Q: What about the viability, T/C [32] of the same compound?
A: 69.1%

Q: And the viability, T/C [33]?
A: 69%

Q: And the viability, T/C [34]?
A: 58.1%

Q: And the viability, T/C [35]?
A: 58.2%

Q: And the viability, T/C [36]?
A: 46.7%

Q: For `C=CC(=O)N1CCN(c2nc(=O)n(-c3c(C)ccnc3C(C)C)c3nc(-c4c(O)cccc4F)c(F)cc23)C(C)C1` (stereo unspecified) + Cc1cccc(N(C)C(=O)C2C(O)CCN2c2nc(C)cc(C(F)(F)F)c2C#N)c1, which IC50 (second compound 0.0316 µM) is on record?
A: > 10 µM

Q: And the IC50 (second compound 0.1 µM)?
A: > 10 µM

Q: And the IC50 (second compound 0.316 µM)?
A: > 10 µM

Q: What about the IC50 (second compound 1 µM) of the same compound?
A: > 10 µM

Q: What about the IC50 (second compound 3.16 µM) of the same compound?
A: > 10 µM

Q: What about the IC50 (second compound 10 µM) of the same compound?
A: > 10 µM

Q: What about the viability, T/C [1] of the same compound?
A: 101%

Q: What about the viability, T/C [2] of the same compound?
A: 93.8%

Q: And the viability, T/C [3]?
A: 95.7%

Q: What about the viability, T/C [4] of the same compound?
A: 108%

Q: And the viability, T/C [5]?
A: 103%

Q: What about the viability, T/C [6] of the same compound?
A: 94.9%

Q: What about the viability, T/C [7] of the same compound?
A: 101%

Q: What about the viability, T/C [8] of the same compound?
A: 103%

Q: What about the viability, T/C [9] of the same compound?
A: 97%

Q: And the viability, T/C [10]?
A: 99.4%

Q: And the viability, T/C [11]?
A: 107%

Q: What about the viability, T/C [12] of the same compound?
A: 100%

Q: And the viability, T/C [13]?
A: 92.7%

Q: And the viability, T/C [14]?
A: 96.9%

Q: And the viability, T/C [15]?
A: 98%

Q: And the viability, T/C [16]?
A: 94.9%

Q: And the viability, T/C [17]?
A: 96%

Q: And the viability, T/C [18]?
A: 96.5%

Q: What about the viability, T/C [19] of the same compound?
A: 107%

Q: What about the viability, T/C [20] of the same compound?
A: 97.8%

Q: And the viability, T/C [21]?
A: 96.5%

Q: And the viability, T/C [22]?
A: 96.5%

Q: What about the viability, T/C [23] of the same compound?
A: 96%

Q: And the viability, T/C [24]?
A: 98%

Q: What about the viability, T/C [25] of the same compound?
A: 101%

Q: What about the viability, T/C [26] of the same compound?
A: 96.6%

Q: What about the viability, T/C [27] of the same compound?
A: 92.4%

Q: And the viability, T/C [28]?
A: 95.6%

Q: What about the viability, T/C [29] of the same compound?
A: 96.9%

Q: What about the viability, T/C [30] of the same compound?
A: 101%

Q: What about the viability, T/C [31] of the same compound?
A: 98.2%

Q: What about the viability, T/C [32] of the same compound?
A: 93.8%

Q: And the viability, T/C [33]?
A: 88%

Q: And the viability, T/C [34]?
A: 83.6%

Q: And the viability, T/C [35]?
A: 97.1%

Q: What about the viability, T/C [36] of the same compound?
A: 90.2%

Q: Which IC50 (second compound 0.0316 µM) does the source give for `CC(C)n1c(=O)n(C)c2cnc3cc(F)c(-c4ccc(OCCCN5CCCCC5)nc4)cc3c21` + Cc1cccc(N(C)C(=O)C2C(O)CCN2c2nc(C)cc(C(F)(F)F)c2C#N)c1 here?
A: > 10 µM

Q: What about the IC50 (second compound 0.1 µM) of the same compound?
A: > 10 µM

Q: And the IC50 (second compound 0.316 µM)?
A: > 10 µM

Q: And the IC50 (second compound 1 µM)?
A: > 10 µM

Q: What about the IC50 (second compound 3.16 µM) of the same compound?
A: > 10 µM

Q: What about the IC50 (second compound 10 µM) of the same compound?
A: > 10 µM

Q: And the viability, T/C [1]?
A: 103%

Q: What about the viability, T/C [2] of the same compound?
A: 106%

Q: What about the viability, T/C [3] of the same compound?
A: 109%

Q: What about the viability, T/C [4] of the same compound?
A: 116%

Q: What about the viability, T/C [5] of the same compound?
A: 99.8%

Q: What about the viability, T/C [6] of the same compound?
A: 93.9%

Q: What about the viability, T/C [7] of the same compound?
A: 115%

Q: What about the viability, T/C [8] of the same compound?
A: 105%

Q: What about the viability, T/C [9] of the same compound?
A: 107%

Q: What about the viability, T/C [10] of the same compound?
A: 111%

Q: And the viability, T/C [11]?
A: 109%

Q: What about the viability, T/C [12] of the same compound?
A: 94%

Q: What about the viability, T/C [13] of the same compound?
A: 103%

Q: And the viability, T/C [14]?
A: 104%

Q: What about the viability, T/C [15] of the same compound?
A: 108%

Q: And the viability, T/C [16]?
A: 107%

Q: What about the viability, T/C [17] of the same compound?
A: 110%

Q: What about the viability, T/C [18] of the same compound?
A: 102%

Q: And the viability, T/C [19]?
A: 108%

Q: And the viability, T/C [20]?
A: 103%

Q: What about the viability, T/C [21] of the same compound?
A: 108%

Q: And the viability, T/C [22]?
A: 115%

Q: What about the viability, T/C [23] of the same compound?
A: 108%

Q: And the viability, T/C [24]?
A: 87.4%

Q: What about the viability, T/C [25] of the same compound?
A: 93.5%

Q: What about the viability, T/C [26] of the same compound?
A: 111%

Q: What about the viability, T/C [27] of the same compound?
A: 96.9%

Q: What about the viability, T/C [28] of the same compound?
A: 112%

Q: And the viability, T/C [29]?
A: 103%

Q: What about the viability, T/C [30] of the same compound?
A: 81.5%

Q: What about the viability, T/C [31] of the same compound?
A: 96.5%

Q: And the viability, T/C [32]?
A: 93.6%

Q: And the viability, T/C [33]?
A: 108%

Q: What about the viability, T/C [34] of the same compound?
A: 101%

Q: And the viability, T/C [35]?
A: 97.6%

Q: And the viability, T/C [36]?
A: 87.4%
